Results taken from ChEMBL document CHEMBL3259563, “The discovery of potent and selective non-steroidal glucocorticoid receptor modulators, suitable for inhalation” (Bioorg Med Chem Lett, 2014).

Experiments:
[1] = biological target: T1, Glucocorticoid receptor (Homo sapiens, UniProt P04150)
T1 sequence (P04150 whole entry): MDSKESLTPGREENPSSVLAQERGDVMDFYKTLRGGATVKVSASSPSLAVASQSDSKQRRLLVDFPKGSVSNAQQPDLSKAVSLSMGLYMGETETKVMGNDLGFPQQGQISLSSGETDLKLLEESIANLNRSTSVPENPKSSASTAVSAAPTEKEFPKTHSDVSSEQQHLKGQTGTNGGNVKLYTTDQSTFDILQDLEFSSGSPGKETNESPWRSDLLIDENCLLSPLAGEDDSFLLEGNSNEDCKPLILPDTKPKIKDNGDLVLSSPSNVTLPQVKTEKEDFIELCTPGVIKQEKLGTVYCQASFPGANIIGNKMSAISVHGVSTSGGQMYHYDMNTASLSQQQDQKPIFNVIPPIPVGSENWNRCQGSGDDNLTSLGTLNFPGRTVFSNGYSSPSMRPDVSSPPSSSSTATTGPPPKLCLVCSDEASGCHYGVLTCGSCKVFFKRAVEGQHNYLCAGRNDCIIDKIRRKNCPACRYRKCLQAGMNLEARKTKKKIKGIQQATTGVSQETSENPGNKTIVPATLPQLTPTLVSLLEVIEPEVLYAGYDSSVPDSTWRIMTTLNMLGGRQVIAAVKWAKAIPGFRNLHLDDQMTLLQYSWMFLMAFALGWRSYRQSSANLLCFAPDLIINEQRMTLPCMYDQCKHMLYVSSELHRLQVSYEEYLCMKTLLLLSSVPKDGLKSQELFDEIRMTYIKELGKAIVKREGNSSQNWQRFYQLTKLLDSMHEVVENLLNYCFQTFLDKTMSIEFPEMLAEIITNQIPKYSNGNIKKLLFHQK
Description: Agonist activity at glucocorticoid receptor in human Chago K1 cells assessed as gene transrepression by Lac-Z reporter gene assay

[2] = biological target: T1, Glucocorticoid receptor; remark: listed apart in the source
Description: Agonist activity at glucocorticoid receptor in human PBMC assessed as inhibition of LPS-stimulated TNF-alpha release

[3] = biological target: T1, Glucocorticoid receptor; remark: listed apart in the source
Description: Binding affinity to human glucocorticoid receptor by fluorescence polarization assay

[4] = Lipophilicity, log D of the compound at pH 7.4; format: physicochemical; conditions: buffer
[5] = test system: Rattus norvegicus; assay: Antiinflammatory activity in rat assessed as inhibition of LPS-induced leukocyte influx to broncho-alveolar lavage fluid at 10 ug/kg, administered intratracheally 2 hrs prior to LPS challenge measured after 4 hrs relative to control; format: functional; conditions: inhaled or nasal
[6] = test system: Rattus norvegicus; assay: Antiinflammatory activity in rat assessed as inhibition of LPS-induced leukocyte influx to broncho-alveolar lavage fluid at 30 ug/kg, administered intratracheally 2 hrs prior to LPS challenge measured after 4 hrs relative to control; format: functional; conditions: inhaled or nasal
[7] = test system: Rattus norvegicus; assay: Antiinflammatory activity in rat assessed as inhibition of LPS-induced leukocyte influx to broncho-alveolar lavage fluid at 100 ug/kg, administered intratracheally 2 hrs prior to LPS challenge measured after 4 hrs relative to control; format: functional; conditions: inhaled or nasal
[8] = test system: Rattus norvegicus; assay: Antiinflammatory activity in rat assessed as inhibition of LPS-induced lung edema at 10 ug/kg, administered intratracheally 2 hrs prior to LPS challenge measured after 4 hrs relative to control; format: functional; conditions: inhaled or nasal
[9] = test system: Rattus norvegicus; assay: Antiinflammatory activity in rat assessed as inhibition of LPS-induced lung edema at 30 ug/kg, administered intratracheally 2 hrs prior to LPS challenge measured after 4 hrs relative to control; format: functional; conditions: inhaled or nasal
[10] = test system: Rattus norvegicus; assay: Antiinflammatory activity in rat assessed as inhibition of LPS-induced lung edema at 100 ug/kg, administered intratracheally 2 hrs prior to LPS challenge measured after 4 hrs relative to control; format: functional; conditions: inhaled or nasal
[11] = test system: Mus musculus; assay: Antiinflammatory activity in mouse acute cigarette smoke model assessed as inhibition of neutrophil influx to broncho-alveolar lavage fluid at 30 ug/kg, administered intratracheally 30 mins prior to first cigarette smoke challenge every day for 4 days measured after 24 hrs post last cigarette smoke challenge relative to control; conditions: inhaled or nasal

SMILES	IC50 [1]	IC50 [2]	IC50 [3]	further results
Cc1ccc(S(=O)(=O)N[C@@H](C)COc2cccc3cnccc23)c(C)c1	–	–	0.41 µM	–
Cc1cc(C)c(S(=O)(=O)N[C@@H](C)CNc2cccc3c2cnn3-c2ccc(Cl)cc2)c(C)c1	0.0037 µM	0.013 µM	0.0034 µM	–
Cc1nn(C2CCCC2)c(C)c1S(=O)(=O)N[C@@H](C)CNc1cccc2c1cnn2-c1cncnc1	0.043 µM	–	–	–
Cc1cc(C)c(S(=O)(=O)N[C@@H](C)CNc2cccc3ncccc23)c(C)c1	1.8 µM	–	–	–
Cc1cccc(-n2ncc3c(NC[C@H](C)NS(=O)(=O)c4c(C)cc(C)cc4C)cccc32)c1	0.0066 µM	0.0088 µM	–	–
Cc1cc(Cl)cc(Cl)c1S(=O)(=O)N[C@@H](C)COc1cccc2ncccc12	–	–	0.22 µM	–
Cc1cc(C)c(S(=O)(=O)N[C@@H](C)CNc2cccc3[nH]ncc23)c(C)c1	0.76 µM	–	–	–
Cc1ccc(S(=O)(=O)N[C@@H](C)COc2cccc3ncccc23)c(C)c1	–	–	1.6 µM	–
Cc1cc(C)c(S(=O)(=O)N[C@@H](C)CCc2cccc3c2cnn3-c2ccc(F)cc2)c(C)c1	0.023 µM	0.012 µM	–	–
C[C@@H](COc1cccc2ncccc12)NS(=O)(=O)c1ccccc1	–	–	> 10 µM	–
C[C@@H](COc1cccc2ncccc12)NS(=O)(=O)c1ccccc1C#N	–	–	> 10 µM	–
Cc1cc(C)c(S(=O)(=O)N[C@@H](C)CNc2cccc3c2cnn3-c2ccccc2)c(C)c1	0.0015 µM	0.0016 µM	–	–
CCC(=O)O[C@]1(C(=O)SCF)[C@H](C)C[C@H]2[C@@H]3C[C@H](F)C4=CC(=O)C=C[C@]4(C)[C@@]3(F)[C@@H](O)C[C@@]21C [FLUTICASONE PROPIONATE]	–	–	–	inhibition in vivo at 0.01 mg/kg [5]: 84%; inhibition in vivo at 0.03 mg/kg [6]: 92%; inhibition in vivo at 0.1 mg/kg [7]: 94%; inhibition in vivo at 0.01 mg/kg [8]: 64%; inhibition in vivo at 0.03 mg/kg [9]: 78%; inhibition in vivo at 0.1 mg/kg [10]: 116%; inhibition in vivo at 0.03 mg/kg [11]: 0%
C[C@@H](COc1cccc2ncccc12)NS(=O)(=O)c1cccc(C#N)c1	–	–	1.8 µM	–
Cc1cc(C)c(S(=O)(=O)N[C@@H](C)CNc2cccc3c2cnn3-c2ccc(F)nc2)c(C)c1	–	0.023 µM	–	–
Cc1cc(C)c(S(=O)(=O)N[C@@H](C)CNc2cccc3c2cnn3-c2cccnc2)c(C)c1	0.0026 µM	0.002 µM	–	–

More lines, main results first:

IC50 [1]	IC50 [2]	IC50 [3]	SMILES	further results
0.0061 µM	0.028 µM	–	Cc1cc(C)c(S(=O)(=O)N[C@@H](C)CNc2cccc3c2cnn3-c2cccc(F)c2)c(C)c1	–
0.96 µM	–	0.24 µM	Cc1cc(C)c(S(=O)(=O)N[C@@H](C)COc2cccc3ncccc23)c(C)c1	–
–	–	0.085 µM	Cc1cc(C)c(S(=O)(=O)N[C@@H](C)COc2c(C)cccc2C)c(C)c1	–
–	–	0.018 µM	Cc1cc(C)c(S(=O)(=O)N[C@@H](C)COc2cccc3cnccc23)c(C)c1	logD [4]: 4.1
–	–	0.055 µM	Cc1cc(C)c(S(=O)(=O)N[C@@H](C)CCc2ccccc2)c(C)c1	–
–	–	0.032 µM	Cc1nn(C2CCCC2)c(C)c1S(=O)(=O)N[C@@H](C)COc1cccc2cnccc12	logD [4]: 3.5
0.0097 µM	–	–	Cc1nn(C2CCCC2)c(C)c1S(=O)(=O)N[C@@H](C)CNc1cccc2c1cnn2-c1ccc(F)cc1	–
2.4 µM	–	0.08 µM	C[C@@H](COc1cccc2ncccc12)NS(=O)(=O)c1c(Cl)cc(Cl)cc1Cl	–
–	–	10 µM	Cc1cc(C)c(S(=O)(=O)N[C@@H](C)CNc2ccc3ncccc3c2)c(C)c1	–
–	–	> 10 µM	COc1ccccc1S(=O)(=O)N[C@@H](C)COc1cccc2ncccc12	–
0.0045 µM	0.012 µM	–	Cc1ccc(-n2ncc3c(NC[C@H](C)NS(=O)(=O)c4c(C)cc(C)cc4C)cccc32)cc1	–
0.041 µM	–	–	COc1cccc(-n2ncc3c(NC[C@H](C)NS(=O)(=O)c4c(C)cc(C)cc4C)cccc32)c1	–
0.014 µM	0.036 µM	0.0038 µM	Cc1cc(C)c(S(=O)(=O)NC(COc2cccc3c2cnn3-c2ccc(F)cc2)C(F)(F)F)c(C)c1 (racemic)	–
0.016 µM	0.013 µM	–	Cc1nn(C2CCCC2)c(C)c1S(=O)(=O)N[C@@H](C)CNc1cccc2c1cnn2-c1ccc(C#N)cc1	–
2.2 µM	–	0.16 µM	Cc1cc(C)c(S(=O)(=O)N[C@@H](C)CNc2cccc3nc(C)ccc23)c(C)c1	–
–	–	0.0077 µM	Cc1cc(C)c(S(=O)(=O)NC(C)CSc2cccc3c2cnn3-c2ccc(F)cc2)c(C)c1 (racemic)	–
–	–	10 µM	Cc1cc(C)c(S(=O)(=O)N[C@@H](C)CNc2ccc3cnccc3c2)c(C)c1	–
0.012 µM	0.0021 µM	0.035 µM	Cc1cc(C)c(S(=O)(=O)N[C@H](CNc2cccc3c2cnn3-c2ccc(F)cc2)C(C)C)c(C)c1	–
1.1 µM	–	–	Cc1cc(C)c(S(=O)(=O)N[C@@H](C)CNc2ccc(C)c3ncccc23)c(C)c1	–
0.014 µM	0.023 µM	0.0041 µM	Cc1cc(C)c(S(=O)(=O)N[C@@H](C)CNc2cccc3c2cnn3-c2ccc(F)c(C)c2)c(C)c1	–
0.0069 µM	0.0081 µM	0.0053 µM	Cc1cc(C)c(S(=O)(=O)N[C@@H](C)CNc2cccc3c2cnn3-c2cncnc2)c(C)c1	–
